Literature values in patent publication US20100209356A1, “CONTRAST AGENTS” (priority 2007, published 2010).

Settings: high risk patients; iodixanol compared with a low-osmolar, non-ionic contrast medium

For CC(=O)N(CC(O)CN(C(C)=O)c1c(I)c(C(=O)NCC(O)CO)c(I)c(C(=O)NCC(O)CO)c1I)c1c(I)c(C(=O)NCC(O)CO)c(I)c(C(=O)NCC(O)CO)c1I (stereo not shown) [iodixanol], the “nephropathy induced by contrast medium” value is listed as “less likely to develop”.
